Measurements published in ChEMBL document CHEMBL5291721, “A preclinical secondary pharmacology resource illuminates target-adverse drug reaction associations of marketed drugs” (Nat Commun, 2023).

Experiments:
D(1A) dopamine receptor = D(1A) dopamine receptor (Homo sapiens, UniProt P21728)
[1] = molecular target: T1, Muscarinic acetylcholine receptor M2 (Homo sapiens, UniProt P08172)
T1 sequence (P08172 whole entry): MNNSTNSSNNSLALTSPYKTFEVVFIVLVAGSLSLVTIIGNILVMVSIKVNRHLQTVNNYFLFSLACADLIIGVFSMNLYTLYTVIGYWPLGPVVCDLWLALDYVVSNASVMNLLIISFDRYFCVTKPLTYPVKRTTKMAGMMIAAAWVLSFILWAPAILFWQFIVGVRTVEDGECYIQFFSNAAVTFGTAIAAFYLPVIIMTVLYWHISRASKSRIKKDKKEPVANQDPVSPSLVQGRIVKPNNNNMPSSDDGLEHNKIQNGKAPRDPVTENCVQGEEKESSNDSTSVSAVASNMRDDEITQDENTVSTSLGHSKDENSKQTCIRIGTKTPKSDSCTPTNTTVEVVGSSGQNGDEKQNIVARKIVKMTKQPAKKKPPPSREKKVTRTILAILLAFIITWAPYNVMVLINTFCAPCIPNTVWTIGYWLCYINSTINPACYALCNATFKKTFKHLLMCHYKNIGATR

Progesterone receptor = molecular target: T2, Progesterone receptor (Homo sapiens, UniProt P06401)
T2 sequence (P06401 whole entry): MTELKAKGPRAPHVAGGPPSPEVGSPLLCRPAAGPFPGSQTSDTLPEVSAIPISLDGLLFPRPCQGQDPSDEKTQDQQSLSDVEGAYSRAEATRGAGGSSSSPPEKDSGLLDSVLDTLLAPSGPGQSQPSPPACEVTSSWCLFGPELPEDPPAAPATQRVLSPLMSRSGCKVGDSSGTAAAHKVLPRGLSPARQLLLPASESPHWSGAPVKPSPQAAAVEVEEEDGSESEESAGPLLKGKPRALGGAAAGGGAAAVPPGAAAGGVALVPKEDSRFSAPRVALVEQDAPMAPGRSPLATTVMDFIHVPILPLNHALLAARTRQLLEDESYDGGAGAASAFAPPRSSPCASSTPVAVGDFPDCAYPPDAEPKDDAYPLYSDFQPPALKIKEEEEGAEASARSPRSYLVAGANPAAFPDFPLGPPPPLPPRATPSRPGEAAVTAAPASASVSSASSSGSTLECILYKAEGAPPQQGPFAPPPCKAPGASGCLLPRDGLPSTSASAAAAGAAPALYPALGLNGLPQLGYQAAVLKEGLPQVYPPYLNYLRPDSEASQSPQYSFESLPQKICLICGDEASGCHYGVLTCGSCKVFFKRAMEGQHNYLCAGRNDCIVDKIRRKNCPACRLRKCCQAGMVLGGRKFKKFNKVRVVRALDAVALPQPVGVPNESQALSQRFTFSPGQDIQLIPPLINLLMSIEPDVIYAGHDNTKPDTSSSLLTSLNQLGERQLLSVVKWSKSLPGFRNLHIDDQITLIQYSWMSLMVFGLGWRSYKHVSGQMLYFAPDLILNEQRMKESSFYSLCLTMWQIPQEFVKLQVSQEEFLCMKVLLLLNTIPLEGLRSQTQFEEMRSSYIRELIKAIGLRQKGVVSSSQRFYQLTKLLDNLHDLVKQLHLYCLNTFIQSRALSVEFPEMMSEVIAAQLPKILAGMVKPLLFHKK

Histamine H3 receptor = Histamine H3 receptor (Homo sapiens, UniProt Q9Y5N1)
Chain of Histamine H3 receptor (Q9Y5N1 whole entry): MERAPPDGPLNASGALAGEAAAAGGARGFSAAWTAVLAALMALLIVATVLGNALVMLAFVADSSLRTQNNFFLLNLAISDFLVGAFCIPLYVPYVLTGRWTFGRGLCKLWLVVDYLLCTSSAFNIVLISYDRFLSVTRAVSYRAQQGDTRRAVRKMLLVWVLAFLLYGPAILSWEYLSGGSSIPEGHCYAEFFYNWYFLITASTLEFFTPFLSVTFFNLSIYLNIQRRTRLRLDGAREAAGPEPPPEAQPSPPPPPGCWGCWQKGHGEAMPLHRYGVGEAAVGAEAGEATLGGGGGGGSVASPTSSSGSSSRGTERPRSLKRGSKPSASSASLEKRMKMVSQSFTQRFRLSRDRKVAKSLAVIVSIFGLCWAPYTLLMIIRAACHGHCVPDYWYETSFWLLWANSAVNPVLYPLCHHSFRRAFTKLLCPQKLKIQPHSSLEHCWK

[2] = molecular target: Sodium-dependent serotonin transporter (Homo sapiens, UniProt P31645)
Chain of Sodium-dependent serotonin transporter (P31645 whole entry): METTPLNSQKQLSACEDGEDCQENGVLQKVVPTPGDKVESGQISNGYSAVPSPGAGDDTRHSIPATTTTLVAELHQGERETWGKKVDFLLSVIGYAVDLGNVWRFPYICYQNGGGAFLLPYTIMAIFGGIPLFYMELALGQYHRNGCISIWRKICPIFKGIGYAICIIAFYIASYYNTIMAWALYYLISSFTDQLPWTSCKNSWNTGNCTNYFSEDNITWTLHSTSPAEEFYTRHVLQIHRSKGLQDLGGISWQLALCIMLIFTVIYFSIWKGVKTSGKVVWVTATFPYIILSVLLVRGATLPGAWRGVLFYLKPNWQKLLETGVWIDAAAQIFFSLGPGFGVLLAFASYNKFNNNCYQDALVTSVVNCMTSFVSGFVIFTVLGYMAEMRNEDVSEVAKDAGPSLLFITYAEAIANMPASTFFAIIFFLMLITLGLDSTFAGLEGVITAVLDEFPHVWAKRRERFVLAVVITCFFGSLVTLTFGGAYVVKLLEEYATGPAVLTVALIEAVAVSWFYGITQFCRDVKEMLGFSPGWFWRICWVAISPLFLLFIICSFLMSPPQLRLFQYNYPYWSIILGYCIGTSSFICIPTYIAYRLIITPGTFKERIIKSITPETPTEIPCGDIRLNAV

[3] = molecular target: T3, 5-hydroxytryptamine receptor 1A (Homo sapiens, UniProt P08908)
T3 sequence (P08908 whole entry): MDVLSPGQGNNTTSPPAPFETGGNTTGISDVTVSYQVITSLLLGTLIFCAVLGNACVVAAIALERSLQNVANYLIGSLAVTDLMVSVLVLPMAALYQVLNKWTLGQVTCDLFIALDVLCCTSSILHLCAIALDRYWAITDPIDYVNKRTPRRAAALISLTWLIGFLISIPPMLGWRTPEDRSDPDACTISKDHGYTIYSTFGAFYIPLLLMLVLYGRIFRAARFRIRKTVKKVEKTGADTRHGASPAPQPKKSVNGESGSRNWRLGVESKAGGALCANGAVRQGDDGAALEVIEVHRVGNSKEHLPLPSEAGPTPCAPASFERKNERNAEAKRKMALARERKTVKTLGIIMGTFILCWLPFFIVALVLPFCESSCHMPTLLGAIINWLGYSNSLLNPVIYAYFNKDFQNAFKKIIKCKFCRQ

[4] = molecular target: T4, Alpha-2A adrenergic receptor (Homo sapiens, UniProt P08913)
T4 sequence (P08913 whole entry): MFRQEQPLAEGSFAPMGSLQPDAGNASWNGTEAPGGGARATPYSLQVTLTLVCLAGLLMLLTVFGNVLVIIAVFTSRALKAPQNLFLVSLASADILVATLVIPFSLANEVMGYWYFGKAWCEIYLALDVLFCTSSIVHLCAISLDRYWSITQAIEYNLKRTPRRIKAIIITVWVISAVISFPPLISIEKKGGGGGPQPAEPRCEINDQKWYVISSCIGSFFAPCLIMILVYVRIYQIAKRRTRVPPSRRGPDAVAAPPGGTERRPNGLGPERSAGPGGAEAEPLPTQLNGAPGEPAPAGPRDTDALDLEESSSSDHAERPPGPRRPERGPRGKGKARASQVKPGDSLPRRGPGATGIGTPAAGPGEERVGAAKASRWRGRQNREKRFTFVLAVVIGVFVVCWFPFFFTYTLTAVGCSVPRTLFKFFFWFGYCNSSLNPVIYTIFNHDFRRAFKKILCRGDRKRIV

[5] = molecular target: T5, Alpha-1A adrenergic receptor (Homo sapiens, UniProt P35348); format: functional, cell-based
T5 sequence (P35348 whole entry): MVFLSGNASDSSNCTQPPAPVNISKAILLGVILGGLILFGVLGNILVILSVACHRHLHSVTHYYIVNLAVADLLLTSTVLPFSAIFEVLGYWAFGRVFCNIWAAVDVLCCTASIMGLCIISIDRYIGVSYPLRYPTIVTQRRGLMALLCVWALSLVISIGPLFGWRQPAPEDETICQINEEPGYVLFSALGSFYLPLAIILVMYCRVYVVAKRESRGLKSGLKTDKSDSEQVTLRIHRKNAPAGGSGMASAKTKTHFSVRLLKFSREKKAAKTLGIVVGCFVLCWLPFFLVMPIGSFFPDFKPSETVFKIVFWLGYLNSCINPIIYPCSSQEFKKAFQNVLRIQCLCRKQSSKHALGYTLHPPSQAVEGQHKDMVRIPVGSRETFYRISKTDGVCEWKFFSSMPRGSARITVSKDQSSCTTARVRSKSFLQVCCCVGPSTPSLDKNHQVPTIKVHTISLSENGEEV

[6] = molecular target: Sodium-dependent noradrenaline transporter (Homo sapiens, UniProt P23975)
Chain of Sodium-dependent noradrenaline transporter (P23975 whole entry): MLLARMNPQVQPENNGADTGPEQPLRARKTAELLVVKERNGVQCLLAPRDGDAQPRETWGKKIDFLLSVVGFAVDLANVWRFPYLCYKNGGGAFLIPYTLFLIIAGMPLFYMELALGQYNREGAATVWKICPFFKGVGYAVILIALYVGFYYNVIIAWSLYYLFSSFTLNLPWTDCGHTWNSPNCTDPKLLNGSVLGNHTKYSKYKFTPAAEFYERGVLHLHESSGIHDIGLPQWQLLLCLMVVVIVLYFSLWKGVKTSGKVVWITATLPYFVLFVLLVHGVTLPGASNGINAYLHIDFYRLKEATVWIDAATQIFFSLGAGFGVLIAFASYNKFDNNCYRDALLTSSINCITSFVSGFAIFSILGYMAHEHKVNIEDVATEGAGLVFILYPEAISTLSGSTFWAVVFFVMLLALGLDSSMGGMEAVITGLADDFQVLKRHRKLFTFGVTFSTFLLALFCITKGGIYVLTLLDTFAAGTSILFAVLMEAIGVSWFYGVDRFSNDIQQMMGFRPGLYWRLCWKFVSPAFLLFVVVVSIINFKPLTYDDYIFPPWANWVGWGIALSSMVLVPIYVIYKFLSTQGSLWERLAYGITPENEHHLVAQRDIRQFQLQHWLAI
Note: assay procedure not described here.

Chain of D(1A) dopamine receptor (P21728 whole entry): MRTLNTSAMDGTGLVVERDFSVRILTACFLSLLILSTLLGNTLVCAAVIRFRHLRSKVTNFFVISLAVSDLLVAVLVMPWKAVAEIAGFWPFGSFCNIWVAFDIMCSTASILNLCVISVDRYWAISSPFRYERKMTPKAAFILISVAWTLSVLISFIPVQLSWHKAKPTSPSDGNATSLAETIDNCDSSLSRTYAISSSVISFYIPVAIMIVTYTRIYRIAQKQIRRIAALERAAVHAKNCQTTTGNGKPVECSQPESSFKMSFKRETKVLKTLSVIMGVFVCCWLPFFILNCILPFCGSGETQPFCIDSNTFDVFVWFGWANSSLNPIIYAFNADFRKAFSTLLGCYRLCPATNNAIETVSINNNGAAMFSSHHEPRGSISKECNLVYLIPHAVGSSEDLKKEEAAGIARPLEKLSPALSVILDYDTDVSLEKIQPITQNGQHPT

Structure (SMILES)	AC50 (D(1A) dopamine receptor)	AC50 [1]	AC50 (Progesterone receptor)	AC50 (Histamine H3 receptor)	AC50 [2]	AC50 [3]	AC50 [4]	AC50 [5]	AC50 [6]
CC(=O)OC(C)C[N+](C)(C)C (stereo unspecified) [METHACHOLINE]	> 30 µM	2.22 µM	> 30 µM	> 30 µM	> 30 µM	> 30 µM	> 30 µM	> 30 µM	> 30 µM
C1N2CN3CN1CN(C2)C3 [METHENAMINE]	> 30 µM	> 30 µM	> 30 µM	> 30 µM	> 30 µM	> 30 µM	> 30 µM	> 30 µM	> 30 µM
O=[N+]([O-])c1cncn1CCN1CCOCC1 [NIMORAZOLE]	> 30 µM	> 30 µM	> 30 µM	> 30 µM	> 30 µM	> 30 µM	> 30 µM	> 30 µM	> 30 µM
NC(=O)c1cccc2cn(-c3ccc([C@@H]4CCCNC4)cc3)nc12 [NIRAPARIB]	> 30 µM	14.4 µM	> 30 µM	26 µM	1.17 µM	> 30 µM	> 30 µM	> 30 µM	1 µM
COc1ccc2c(c1)OC(C)(C)C(c1ccccc1)C2c1ccc(OCCN2CCCC2)cc1 (stereo unspecified) [ORMELOXIFENE]	6.98 µM	9.13 µM	3.57 µM	0.785 µM	13.2 µM	9.91 µM	10.6 µM	13.4 µM	4.9 µM
CC[C@@H]1/C=C(\C)C[C@H](C)C[C@H](OC)[C@H]2O[C@@](O)(C(=O)C(=O)N3CCCC[C@H]3C(=O)O[C@H](/C(C)=C/[C@@H]3CC[C@H](Cl)[C@H](OC)C3)[C@H](C)[C@@H](O)CC1=O)[C@H](C)C[C@@H]2OC [PIMECROLIMUS]	> 30 µM	> 30 µM	> 30 µM	> 30 µM	> 30 µM	> 30 µM	> 30 µM	> 30 µM	> 30 µM
CC(C(=O)O)c1ccc2c(c1)Cc1cccnc1O2 (stereo unspecified) [PRANOPROFEN]	> 30 µM	> 30 µM	> 30 µM	> 30 µM	> 10 µM	> 30 µM	> 30 µM	> 30 µM	> 30 µM
O=C(O)CCn1c2c(c3ccccc31)C[C@H](NS(=O)(=O)c1ccc(F)cc1)CC2 [RAMATROBAN]	> 30 µM	> 30 µM	> 30 µM	> 30 µM	> 30 µM	> 30 µM	> 30 µM	> 30 µM	> 30 µM
CCO[C@@H](Cc1ccc(OCCn2c(C)ccc2-c2ccc(SC)cc2)cc1)C(=O)O [SAROGLITAZAR]	> 30 µM	> 30 µM	8.57 µM	> 30 µM	> 30 µM	> 30 µM	> 30 µM	15 µM	24.5 µM
CN1CCC2=C(C1)c1ccccc1Cc1ccccc12 [SETIPTILINE]	0.0882 µM	0.855 µM	> 30 µM	> 30 µM	8.15 µM	0.154 µM	0.0996 µM	> 30 µM	3.52 µM
COc1ccc(CCC(C)NCC(O)c2ccc(O)c([S+](C)[O-])c2)cc1 (stereo unspecified) [SULFINALOL]	> 30 µM	> 30 µM	> 30 µM	> 30 µM	0.866 µM	0.326 µM	> 30 µM	> 30 µM	10.6 µM
CCC1C(C)=NN=C(c2ccc(OC)c(OC)c2)c2cc(OC)c(OC)cc21 (stereo unspecified) [TOFISOPAM]	> 30 µM	> 30 µM	> 30 µM	> 30 µM	> 30 µM	> 30 µM	> 30 µM	> 30 µM	> 30 µM
COc1cc(NCc2ccc3nc(N)nc(N)c3c2C)cc(OC)c1OC [TRIMETREXATE]	1.94 µM	3.6 µM	> 30 µM	> 30 µM	> 30 µM	8.06 µM	> 30 µM	> 30 µM	12.3 µM
C[C@@H]1O[C@@H](OC[C@H]2O[C@@H](Oc3c(-c4ccc(OCCO)c(OCCO)c4)oc4cc(OCCO)cc(O)c4c3=O)[C@H](O)[C@@H](O)[C@@H]2O)[C@H](O)[C@H](O)[C@H]1O [TROXERUTIN]	> 30 µM	> 30 µM	> 30 µM	> 30 µM	> 30 µM	> 30 µM	> 30 µM	> 30 µM	> 30 µM
